Results as given in the CheMixHub viscosity set.

Assay: xn = mol fraction of the nth substance listed

CC(C)C(C)O (stereo not drawn) + COc1ccccc1
viscosity [mPa·s], 101.33 kPa
Details	x2 = 0.1006	x2 = 0.2007	x2 = 0.3004	x2 = 0.4	x2 = 0.5008	x2 = 0.6009	x2 = 0.6997	x2 = 0.8003	x2 = 0.8998
303.15 K	2.405	1.858	1.476	1.223	1.067	0.981	0.937	0.919	0.913
313.15 K	1.731	1.397	1.157	0.991	0.889	0.832	0.808	0.799	0.794
323.15 K	1.273	1.066	0.925	0.83	0.771	0.736	0.718	0.707	0.699

Clc1ccccc1Cl + COc1ccccc1
viscosity [mPa·s], 101 kPa
Details	x2 = 0.0977	x2 = 0.1979	x2 = 0.3012	x2 = 0.403	x2 = 0.4955	x2 = 0.5995	x2 = 0.6967	x2 = 0.7951	x2 = 0.8931
298.15 K	1.201	1.172	1.142	1.118	1.097	1.081	1.056	1.037	1.022
303.15 K	1.121	1.094	1.067	1.042	1.019	1	0.9808	0.9631	0.9486
308.15 K	1.046	1.02	0.9938	0.9716	0.949	0.9288	0.9098	0.8944	0.881
313.15 K	0.9762	0.9514	0.9268	0.9045	0.8869	0.8664	0.8479	0.832	0.8178

CCCC1c2cc(c(O)c(/N=N/c3cccc(C(=O)O)c3)c2O)C(CCC)c2cc(c(O)c(/N=N/c3cccc(C(=O)O)c3)c2O)C(CCC)c2cc(c(O)c(/N=N/c3cccc(C(=O)O)c3)c2O)C(CCC)c2cc1c(O)c(/N=N/c1cccc(C(=O)O)c1)c2O (stereo not drawn) + CS(C)=O
viscosity [mPa·s], 101 kPa
Details	293.15 K	298.15 K	303.15 K	308.15 K	313.15 K
x1 = 0.000457	2.314	2.072	1.87	1.698	1.555
x1 = 0.000544	2.345	2.1	1.893	1.724	1.579
x1 = 0.000616	2.369	2.124	1.907	1.737	1.597
x1 = 0.000708	2.391	2.143	1.931	1.756	1.607
x1 = 0.0008532	2.425	2.167	1.952	1.779	1.625
x1 = 0.001009	2.471	2.209	1.991	1.812	1.651
x1 = 0.001122	2.52	2.25	2.024	1.838	1.68
x1 = 0.001351	2.556	2.284	2.045	1.858	1.695
x1 = 0.001491	2.633	2.346	2.104	1.905	1.739
x1 = 0.001636	2.678	2.38	2.138	1.934	1.764
x1 = 0.001789	2.724	2.43	2.176	1.967	1.79

CCCCOC(C)=O + CS(C)=O
viscosity [mPa·s], 101.33 kPa
Details	x2 = 0.074	x2 = 0.1418	x2 = 0.2774	x2 = 0.46	x2 = 0.5396	x2 = 0.6383	x2 = 0.7272	x2 = 0.809	x2 = 0.9021	x2 = 0.9703
293.15 K	0.774	0.789	0.868	1.011	1.098	1.211	1.363	1.527	1.791	2.063
303.15 K	0.678	0.692	0.752	0.879	0.931	1.032	1.146	1.28	1.488	1.697
313.15 K	0.592	0.606	0.662	0.766	0.809	0.889	0.983	1.117	1.258	1.423

C=COC(C)=O + Cc1ccc(C)cc1
viscosity [mPa·s], 101 kPa
Details	x1 = 0.1501	x1 = 0.2469	x1 = 0.3618	x1 = 0.4592	x1 = 0.5631	x1 = 0.67	x1 = 0.7587	x1 = 0.8601	x1 = 0.9478
303.15 K	0.537	0.518	0.497	0.48	0.462	0.445	0.435	0.42	0.403
313.15 K	0.486	0.467	0.445	0.428	0.41	0.393	–	–	0.353

CCCCOC(C)=O + Cc1ccc(C)cc1
viscosity [mPa·s], 101 kPa
Details	298.15 K	308.15 K
x1 = 0.0459	0.615	0.537
x1 = 0.1511	0.615	0.54
x1 = 0.2505	0.618	0.543
x1 = 0.3511	0.621	0.547
x1 = 0.4477	0.626	0.552
x1 = 0.4948	0.628	0.555
x1 = 0.55	0.632	0.558
x1 = 0.6515	0.639	0.565
x1 = 0.7509	0.647	0.572
x1 = 0.8517	0.657	0.58
x1 = 0.9445	0.667	0.589

C=COC(C)=O + Cc1cccc(C)c1
viscosity [mPa·s], 101 kPa
Details	x1 = 0.1482	x1 = 0.2434	x1 = 0.3456	x1 = 0.4518	x1 = 0.5741	x1 = 0.6832	x1 = 0.7598	x1 = 0.8817	x1 = 0.9602
303.15 K	0.52	0.502	0.483	0.465	0.445	0.428	0.414	0.401	0.392
313.15 K	0.469	0.452	0.434	0.416	0.399	0.383	0.37	0.358	0.35

CCCCOC(C)=O + Cc1cccc(C)c1
viscosity [mPa·s], 101 kPa
Details	298.15 K	308.15 K
x1 = 0.0468	0.583	0.528
x1 = 0.1506	0.587	0.531
x1 = 0.2497	0.592	0.535
x1 = 0.3502	0.598	0.539
x1 = 0.4477	0.606	0.545
x1 = 0.4941	0.61	0.548
x1 = 0.549	0.615	0.551
x1 = 0.6505	0.625	0.559
x1 = 0.7501	0.637	0.568
x1 = 0.8511	0.651	0.577
x1 = 0.9409	0.664	0.587

CC(C)c1ccccc1 + Cc1ccccc1
Details	viscosity [mPa·s]
293.15 K, 101.33 kPa, x2 = 0.2846	0.727
293.15 K, 101.33 kPa, x2 = 0.5253	0.676
293.15 K, 101.33 kPa, x2 = 0.6998	0.644
293.15 K, 101.33 kPa, x2 = 0.856	0.612
298.15 K, 101.3 kPa, x2 = 0.1169	0.6671
298.15 K, 101.3 kPa, x2 = 0.2596	0.643
298.15 K, 101.3 kPa, x2 = 0.3951	0.6203
298.15 K, 101.3 kPa, x2 = 0.508	0.6016
298.15 K, 101.3 kPa, x2 = 0.605	0.5854
298.15 K, 101.3 kPa, x2 = 0.7505	0.5615
298.15 K, 101.3 kPa, x2 = 0.8459	0.5459
298.15 K, 101.3 kPa, x2 = 0.9474	0.5288
303.15 K, 101.33 kPa, x2 = 0.2846	0.638
303.15 K, 101.33 kPa, x2 = 0.5253	0.597
303.15 K, 101.33 kPa, x2 = 0.6998	0.57
303.15 K, 101.33 kPa, x2 = 0.856	0.544
313.15 K, 101.33 kPa, x2 = 0.2846	0.569
313.15 K, 101.33 kPa, x2 = 0.5253	0.533
313.15 K, 101.33 kPa, x2 = 0.6998	0.509
313.15 K, 101.33 kPa, x2 = 0.856	0.485
323.15 K, 101.33 kPa, x2 = 0.2846	0.507
323.15 K, 101.33 kPa, x2 = 0.5253	0.477
323.15 K, 101.33 kPa, x2 = 0.6998	0.458
323.15 K, 101.33 kPa, x2 = 0.856	0.437

CCCCOC(C)=O + Cc1ccccc1
viscosity [mPa·s], 101 kPa
Details	293.15 K	298.15 K	303.15 K	308.15 K	313.15 K	318.15 K
x1 = 0.0478	–	0.552	–	0.499	–	–
x1 = 0.1494	–	0.556	–	0.503	–	–
x1 = 0.249	–	0.563	–	0.509	–	–
x1 = 0.348	–	0.571	–	0.515	–	–
x1 = 0.4469	–	0.581	–	0.523	–	–
x1 = 0.501	–	0.587	–	0.528	–	–
x1 = 0.5488	–	0.593	–	0.532	–	–
x1 = 0.6468	–	0.607	–	0.543	–	–
x1 = 0.7365	–	0.621	–	0.554	–	–
x1 = 0.8683	–	0.645	–	0.572	–	–
x1 = 0.9671	–	0.666	–	0.588	–	–
x2 = 0.1024	0.7105	0.6642	0.6223	0.5852	0.5502	0.5173
x2 = 0.205	0.6942	0.6504	0.6104	0.5742	0.5405	0.5084
x2 = 0.3107	0.6786	0.6362	0.5973	0.5624	0.5294	0.4996
x2 = 0.4031	0.6661	0.6247	0.587	0.5526	0.5208	0.4908
x2 = 0.4615	0.6566	0.6161	0.579	0.546	0.514	0.4858
x2 = 0.5069	0.6517	0.6115	0.5746	0.5408	0.5103	0.4814
x2 = 0.5564	0.6439	0.6045	0.5683	0.5352	0.5051	0.4769
x2 = 0.614	0.6371	0.5984	0.5628	0.5301	0.5003	0.4725
x2 = 0.7101	0.6252	0.5864	0.5515	0.5197	0.4913	0.4644
x2 = 0.8103	0.6123	0.5753	0.5419	0.5103	0.4833	0.4562
x2 = 0.908	0.6017	0.5667	0.5337	0.5035	0.4761	0.4496
